According to patent publication US8609656B2, “Heteroarylphenylurea derivative” (Chugai Seiyaku Kabushiki Kaisha, priority 2004, dated 2013):
≈ marks a conversion by molar mass, not a printed value. Where a name gives a salt, the structure may show the parent alone.

Legend:
[1] = tested on: human colorectal cancer cell strain HCT 116; test: Cell growth inhibition test, HCT 116; format: cell-based; details: 72 hours, read-out: HCT116, 50% Growth Inhibition Concentration (IC50 value)
Protocol: (§1) Cell Growth Inhibition Test
(§2) With respect to the compounds relating to the present invention and the known compound (BAY 43-9006), cell growth inhibition activity was measured.
(§3) A sample compound was in-series diluted with dimethyl sulfoxide, and then was 1/50 diluted with a Ca^2+- and Mg^2+-free phosphate-bufferized physiological saline and its 20 μL was poured to a 96-well plate. […] Each of these cell suspensions was dividedly poured to the sample added plate in 180 μL/well and cultured in a 5% carbon dioxide incubator at 37° C. After 72 hours, 20 μL of WST-(HCT 116, a product of Dojin) or WST-1 (HUVEC, a product of Roche diagnostics) was added thereto to each well and the absorbance at 450 nm (reference wavelength: 650 nm) was measured. From the growth inhibition ratio of addition of the sample compound to no-addition of the sample compound as a reference, the 50% growth inhibition IC50) of the sample compound was calculated.
(§4) With respect to the group of representative compounds of the present invention, the IC50 values of HCT 116 and HUVEC (VEGF nondependent growth and VEGF dependent growth) are shown in Tables 5-1 to 5-3.

[2] = tested on: VEGF dependent HUVEC; test: Cell growth inhibition test, VEGF dependent HUVEC; format: cell-based; details: Homo sapiens, 20 ng/mL of VEGF, 72 hours, WST-1, read-out: HUVEC (VEGF Dependence), 50% Growth Inhibition Concentration (IC50 value)
Protocol: as §1, §2, §3, §4

[3] = tested on: VEGF non-dependent human umbilical vein endothelial cells (HUVEC); test: Cell growth inhibition test, VEGF non-dependent HUVEC; format: cell-based; details: 72 hours, WST-1, read-out: HUVEC (VEGF Nondependence), 50% Growth Inhibition Concentration (IC50 value)
Protocol: as §1, §2, §3, §4

[4] = Solubility to fasted state simulated intestinal fluid; format: physicochemical; details: fassif, kinetic from dmso stock, fasted state simulated intestinal fluid (pH 6.5), 37° C.
Protocol: Method of Measuring Solubility to Fasted State Simulated Intestinal Fluid
To a 96-well plate, 2 μL of a dimethyl sulfoxide solution of the compound relating to the present invention or that of the compound BAY 43-9006 was poured at one time, respectively, and fasted state simulated intestinal fluid (pH 6.5) was added 200 μL by 200 μL, and the plate was shaken at 37° C. for 20 hours. The solution was filtered with a membrane filter and 101 μL of the filtrate was transferred to an UV plate, and 100 μL of a mixed solution of ethanol:water=2:1 was added thereto. On the other hand, as a standard solution, 2 μL of a dimethyl sulfoxide solution was added to a solution containing 4 μL of dimethyl sulfoxide, 400 μL of ethanol and 200 μL of water and the obtained solution was transferred 101 μL by 101 μL to the UV plate and to this UV plate, the simulated fasting bile-containing intestinal juice (pH 6.5) was added 100 μL by 100 μL. The solubility was calculated by the following equation. Solubility=(absorbance of sample solution-blank)/(absorbance of standard solution-blank)×[…]
165 μL is a concentration of the standard solution.
Composition of Fasted State Simulated Intestinal Fluid
Fasted state simulated intestinal fluid was prepared in accordance with E. Galia et al., Pharm. Res., 698, 1998.
To about 90 mL of water, 161 mg of taurocholic acid, 59 mg of L-α-phosphatidylcholine, 0.39 g of potassium dihydrogenphosphate and 0.77 g of potassium chloride were added and the pH of the mixture solution […] and the mixture solution was filtered with a membrane filter.

[5] = target: T1, recombinant Raf-1 protein (activated type GST-Raf-1) (Homo sapiens, UniProt P04049); test: RAF-1 enzyme inhibition test (33P incorporation into MEK 1 protein); format: biochemical; details: 10 μM ATP, GST-MEK1 substrate, 30° C., 45 minutes; read-out: Raf-1 Enzyme Inhibition, 50% Enzyme Inhibition Concentration (IC50 value)
T1 construct: fused on or other part: GST tag fused to Raf-1
Protocol: RAF-1 Enzyme Inhibition Test
With respect to the compounds relating to the present invention and the known compound (BAY 43-9006):
[drawing 660] the Raf-1 protein inhibition activity was measured. The enzymatic reaction was measured by incorporation of ^33P-phosphoric acid into MEK 1 protein by a recombinant Raf-1 protein. The activity was measured by preparing 50 μL of a reaction solution containing a dimethyl sulfoxide solution of the compound relating to the present invention or the compound BAY 43-9006 at a varied concentration [as the final concentration, the reaction solution containing […] of TRIS hydrochloric buffer (pH 7.5), 1 mM of dithiothreitol, 100 mM of sodium chloride, 10 mM of potassium fluoride, 1 mM of sodium vanadate, 10 mM of magnesium chloride, 10 μM of adenosine triphosphate (ATP, containing ^33P-ATP of 12580Bq), 2 μg of GST-MEK1 and 25 ng of an activated type GST-Raf-1]; keeping the reaction solution at 30° C. for 45 minutes; adding 100% trichloroacetic acid to the reaction solution in an amount twice the volume of the reaction solution to precipitate a proteinous component; recovering the precipitate on a glass filter; and measuring the radioactivity of the recovered product. The 50% inhibition concentration (IC50) was obtained from the inhibition ratio to a sample-free reference.
The compound BAYT 43-9006 was prepared on the basis of the description (Example 41) of WO 00/42012.

T1 sequence (P04049 349-648 limits assumed): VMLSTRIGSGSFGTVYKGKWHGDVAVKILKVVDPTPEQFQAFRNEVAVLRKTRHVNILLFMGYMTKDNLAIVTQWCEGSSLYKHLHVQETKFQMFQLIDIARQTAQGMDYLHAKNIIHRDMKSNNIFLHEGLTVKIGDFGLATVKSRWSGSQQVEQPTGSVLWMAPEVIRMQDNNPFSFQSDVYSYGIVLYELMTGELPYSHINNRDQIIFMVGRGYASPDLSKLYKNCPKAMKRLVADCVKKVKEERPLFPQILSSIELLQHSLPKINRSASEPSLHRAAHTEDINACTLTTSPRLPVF

| SMILES | IC50 [1] | solubility at 20 h [4] | IC50 [5] | IC50 [2] | IC50 [3] |
| --- | --- | --- | --- | --- | --- |
| CN1CCN(Cc2cc(NC(=O)Nc3ccc(-n4cnc5ncnc(N)c54)cc3)cc(C(F)(F)F)c2)CC1 [Table 3, Compound 4] | – | 219 µg/mL (≈ 417 µM) | 53 nM | – | – |
| C=Cc1nc2c(NC(=O)NCCC)ncnc2n1-c1ccc(NC(=O)Nc2ccc(Cl)c(C(F)(F)F)c2)cc1 [Table 2, Compound 13, 1-(9-{4-[3-(4-Chloro-3-(tri-fluoromethyl)phenyl)ureido]-phenyl}-8-vinyl-9H-purin-6-yl)-3-propylurea] | – | – | 15 nM | – | – |
| C=Cc1nc2c(N)ncnc2n1-c1ccc(NC(=O)Nc2cc(CN3CCN(C)CC3)cc(C(F)(F)F)c2)cc1 [Table 2, Compound 28] | – | 238 µg/mL (≈ 431 µM) | 69 nM | – | – |
| CNc1ncnc2c1ncn2-c1ccc(NC(=O)Nc2cc(CCN(C)C)cc(C(F)(F)F)c2)cc1 [Table 2, Compound 71, 1-[3-(2-Dimethylamino-ethyl)-5-(trifluoromethyl)phenyl]-3-[4-(6-(methylamino)purin-9-yl)phenyl]urea] | – | – | 190 nM | – | – |
| Nc1ncnc2c1ncn2-c1ccc(NC(=O)Nc2ccc(Cl)c(C(F)(F)F)c2)cc1 [Table 1, Compound 30, 1-[4-(6-Aminopurin-9-yl)phenyl]-3-(4-chloro-3-(trifluoromethyl)phenyl)urea hydrochloride] | – | – | 33 nM | – | – |
| CN(C)CCNC(=O)c1cc(NC(=O)Nc2ccc(-n3cnc4ncnc(N)c43)cc2)cc(C(F)(F)F)c1 [Table 3, Compound 9, 3-{3-[4-(6-Aminopurin-7-yl)phenyl]ureido}-N-(2-(dimethylamino)ethyl)-5-(trifluoromethyl)benzamide] | – | – | 85 nM | – | – |

Continued, in another order:

| IC50 [1] | solubility at 20 h [4] | IC50 [5] | SMILES | IC50 [2] | IC50 [3] |
| --- | --- | --- | --- | --- | --- |
| 800 nM | – | – | CNc1ncnc2c1ncn2-c1ccc(NC(=O)Nc2ccc(OCCOC)c(C(F)(F)F)c2)cc1 [Table 3, Compound 41, 1-[4-(2-Methoxy-ethoxy)-3-(trifluoromethyl)phenyl]-3-[4-(6-(methylamino)purin-9-yl)phenyl]urea] | 76 nM | 900 nM |
| 900 nM | – | – | CNc1ncnc2c1ncn2-c1ccc(NC(=O)Nc2ccc(CCCN3CCOCC3)c(C(F)(F)F)c2)cc1 [Table 2, Compound 76, 1-[4-(6-(Methylamino)purin-9-yl)phenyl]-3-[4-[3-morpholin-4-yl-propyl]-3-(trifluoromethyl)phenyl]-urea] | 57 nM | 1000 nM |
| 300 nM | – | – | CCN1CCN(Cc2ccc(NC(=O)Nc3ccc(-n4cnc5c(NC)ncnc54)cc3)cc2C(F)(F)F)CC1 [Table 3, Compound 14, 1-[4-(4-Ethyl-piperazin-1-ylmethyl)-3-(trifluoromethyl)phenyl]-3-[4-(6-(methylamino)purin-9-yl)phenyl]urea] | 4 nM | 200 nM |
| 240 nM | – | – | CNc1ncnc2c1ncn2-c1ccc(NC(=O)Nc2ccc(CN3CCN(C)CC3)c(C(F)(F)F)c2)cc1 [Table 2, Compound 46, 1-[4-(6-(Methylamino)purin-9-yl)phenyl]-3-[4-(4-methylpiperazin-1-ylmethyl)-3-(trifluoromethyl)phenyl]urea] | 2.5 nM | 130 nM |
| – | – | 170 nM | CNc1ncnc2c1ncn2-c1ccc(NC(=O)Nc2cc(CCN3CCCCC3)cc(C(F)(F)F)c2)cc1 [Table 3, Compound 30, 1-[4-(6-(Methylamino)purin-9-yl)phenyl]-3-[3-(2-piperidin-1-yl-ethyl)-5-(trifluoromethyl)phenyl]urea] | – | – |
| – | – | 84 nM | CNc1ncnc2c1ncn2-c1ccc(NC(=O)Nc2cc(CCN3CCOCC3)cc(C(F)(F)F)c2)cc1 [Table 2, Compound 73, 1-[4-(6-(Methylamino)purin-9-yl)phenyl]-3-[3-(2-morpholin-4-yl-ethyl)-5-(trifluoromethyl)phenyl]urea] | – | – |
| – | 79 µg/mL (≈ 147 µM) | 73 nM | CNc1ncnc2c1ncn2-c1ccc(NC(=O)Nc2cc(CCCN3CCCC3)cc(C(F)(F)F)c2)cc1 [Table 3, Compound 45, 1-[4-(6-(Methylamino)purin-9-yl)phenyl]-3-[3-(3-pyrrolidin-1-yl-propyl)-5-(trifluoromethyl)phenyl]-urea] | – | – |
